Assay results reported in doi:10.1101/2025.09.28.679030v1 (biorxiv, 2025).

Molecular target: IGP1 (IGP1/CORK1) ectodomain (Arabidopsis thaliana, UniProt F4I3K3)
Experiment: ITC
Type: binding
Conditions: purified ectodomain; ligand in LRR domain pocket, three subsites; N=1

Kd: ~1000 nM
SMILES: OC[C@H]1O[C@@H](O[C@H]2[C@H](O)[C@@H](O)[C@H](O[C@H]3[C@H](O)[C@@H](O)C(O)O[C@@H]3CO)O[C@@H]2CO)[C@H](O)[C@@H](O)[C@@H]1O (stereo partly shown) [CEL3, cellotriose]
